Measured values taken from US4885275A, “Vancomycin-HCL solutions and the lyophilization thereof” (Eli Lilly and Company, priority 1987, dated 1989).
Counter-ions that a name gives are not always drawn. Each block holds one compound with its values, some of them ahead of it.

Key:
[1] = Gel inhibition in concentrated aqueous vancomycin.HCl solutions; format: physicochemical; set-up: key: G = gel formation; NG = No gel formation; settings: test compound 10% v/v in aqueous vancomycin.HCl 20% w/v, pH about 3.2, Waring blender high speed 3 minutes
Experimental: The experiments were carried out to determine the effect on gel formation in aqueous solutions of vancomycin HCl at a concentration of 20% w/v. The solutions were prepared as follows. An aqueous vehicle containing the test compound in an amount sufficient to provide 10% v/v in the final solution was prepared with water. Vancomycin-free base was added to the aqueous vehicle in an amount sufficient to provide a 20% w/v concentration in the final solution. The slurry of base in the aqueous vehicle was treated with 20% hydrochloric acid to form vancomycin.HCl salt and to adjust the pH to about 3.2. The solution which formed was kept covered to avoid loss of the test compound and water was added to the final volume. The solution was blended in a Waring blender at high speed for 3 minutes and then transferred to clear bottles to observe for gel formation.

[2] = room temperature; cited from earlier work
[3] = Vancomycin.HCl solubility in gel inhibitory compounds (UV or HPLC assay)
Experimental: The solubility of vancomycin.HCl in some of the gel inhibitory compounds was determined as follows. A two-gram quantity of chromatographically purified vancomycin hydrochloride was added to 100 ml of each compound under consideration. Fresh compound was used when possible to minimize the water content. […] The mixtures were stirred at a moderate rate for 4 hours, with sample aliquots removed at timepoints of 10 minutes, 2 hours and 4 hours. The mixtures were then allowed to stand overnight. A final aliquot was taken at the 20- to 24-hour timepoint. The sample aliquots were assayed by UV absorption measurements or HPLC with UV detection.
UV absorption at 280 nm was used to measure the concentration of vancomycin in the sample solutions made with the transparent solvents. Each sample was filtered through medium-pore filter paper and diluted with water to provide an absorption less than 1.0 A. The remaining compounds, acetone and ethyl acetate, required solvent removal before the measurement step. After filtration, sample aliquots were dried under nitrogen and reconstituted with an aqueous buffer for assay by HPLC. The propylene glycol sample were also assayed by HPLC after appropriate dilution without a drying step.

[4] = Gel formation of aqueous vancomycin hydrochloride solutions; format: physicochemical; settings: particularly when agitated by stirring, shaking or blending

- Test Result (gel formation) [1]: G
Compound: CCOC(C)=O [Ethyl acetate]

Compound: CN[C@H](CC(C)C)C(=O)N[C@H]1C(=O)N[C@@H](CC(N)=O)C(=O)N[C@H]2C(=O)N[C@H]3C(=O)N[C@H](C(=O)N[C@H](C(=O)O)c4cc(O)cc(O)c4-c4cc3ccc4O)[C@H](O)c3ccc(c(Cl)c3)Oc3cc2cc(c3O[C@@H]2O[C@H](CO)[C@@H](O)[C@H](O)[C@H]2O[C@H]2C[C@](C)(N)[C@H](O)[C@H](C)O2)Oc2ccc(cc2Cl)[C@H]1O [Vancomycin.HCl, vancomycin hydrochloride]
- solubility in water [2]: about 200 mg/ml
- Solubility ([3]; in acetone, 10 min, HPLC assay): < 10 µg/mL
- Solubility ([3]; in acetone, 2 hrs, HPLC assay): < 10 µg/mL
- Solubility ([3]; in acetone, 4 hrs, HPLC assay): < 10 µg/mL
- Solubility ([3]; in acetone, 20 hrs, HPLC assay): < 10 µg/mL
- Solubility ([3]; in ethyl acetate, 10 min, HPLC assay): < 10 µg/mL
- Solubility ([3]; in ethyl acetate, 2 hrs, HPLC assay): < 10 µg/mL
- Solubility ([3]; in ethyl acetate, 4 hrs, HPLC assay): < 10 µg/mL
- Solubility ([3]; in ethyl acetate, 20 hrs, HPLC assay): < 10 µg/mL
- concentration at which gel forms in ethyl alcohol ([3]; in ethyl alcohol (non-aqueous)): about 2 mg/ml
- Solubility ([3]; in isopropanol, 10 min, UV assay): 40 µg/mL
- Solubility ([3]; in isopropanol, 2 hrs, UV assay): 40 µg/mL
- Solubility ([3]; in isopropanol, 4 hrs, UV assay): 100 µg/mL
- Solubility ([3]; in isopropanol, 20 hrs, UV assay): 70 µg/mL
- Solubility ([3]; in methanol, 10 min, UV assay): 5300 µg/mL
- Solubility ([3]; in methanol, 2 hrs, UV assay): 3700 µg/mL
- Solubility ([3]; in methanol, 4 hrs, UV assay): 3100 µg/mL
- Solubility ([3]; in methanol, 20 hrs, UV assay): 2400 µg/mL
- Solubility ([3]; in propylene glycol, 10 min, HPLC assay): 3000 µg/mL
- concentration in water above which solutions form gels [4]: above 12 % w/v

- Test Result (gel formation) [1]: NG
Compound: CC(C)O [Isopropanol]

- Test Result (gel formation) [1]: NG
Compound: CC(O)CO (centres unmarked) [Propylene glycol]

Compound: CC(C)=O [Acetone]
- Test Result (gel formation) [1]: NG

Compound: CO [Methanol]
- Test Result (gel formation) [1]: G

- Test Result (gel formation) [1]: NG
Compound: CC(=O)OC(C)C [Isopropyl acetate]

Compound: CCC(C)=O [Methyl ethyl ketone]
- Test Result (gel formation) [1]: NG

- Test Result (gel formation) [1]: NG
Compound: CCO [Ethanol]

- Test Result (gel formation) [1]: G
Compound: OCC(O)CO [Glycerin]
